The assay deals with Candida albicans. In words: Antifungal activity against Candida albicans B311 after 24 to 48 hrs by twofold serial dilution method. The class given is functional.

Among the data in ChEMBL document CHEMBL1150732, “Anticandidal activity of eupolauridine and onychine, alkaloids from Cleistopholis patens” (1987) are MIC and Activity values, retold here.

By MIC is commonly meant the lowest concentration found to suppress growth. Read a high MIC as weaker potency.

Converted amounts (≈) assume the structure as drawn. The source made the active and inactive calls. No cut-off for these calls is given here.

On to `Cc1ccnc2c1-c1ccccc1C2=O`, for which inhibition of growth (MIC) required 3.12 µg/mL (≈ 16 µM).

With `Cc1ccnc2c1C(=O)c1ccccc1-2`, the result was Active.

`C[C@@H]1[C@H](O)[C@@H](C)/C=C/C=C/C=C/C=C/C=C/C=C/C=C/[C@H](O[C@@H]2O[C@H](C)[C@@H](O)[C@H](N)[C@@H]2O)C[C@@H]2O[C@](O)(C[C@@H](O)C[C@@H](O)[C@H](O)CC[C@@H](O)C[C@@H](O)CC(=O)O[C@H]1C)C[C@H](O)[C@H]2C(=O)O` [AMPHOTERICIN B] returned an MIC of 0.39 µg/mL (≈ 0.422 µM).

Regarding `c1ccc2c(c1)-c1nccc3ccnc-2c13` [EUPOLAURIDINE], inhibition of growth (MIC) required 1.56 µg/mL (≈ 7.64 µM).
